From patent US8486995B2, “Acaricidal active substance combinations” (priority 2007, dated 2013)
≈ marks a conversion by molar mass, not a printed value.

Tests used:
Assay type in all cases: in vivo
[1] = system: citrus spider mite (Panonychus citri); assay: Panonychus citri test (sprayed citrus plants); details: single active substance; for LC 50 in mg/l after 1d: Citrus limon; for LC50: Panonychus citri, in Citrus x limon, 24 h, after 1 d, read-out: LC 50 in mg/l after 1d
Experimental: (§1) Solvent: 7 parts by weight of dimethylformamide
(§2) Emulsifier: 2 parts by weight of alkylaryl polyglycol ether
(§3) To prepare a suitable preparation of active substance, 1 part by weight of active substance is mixed with the stated amounts of solvent and emulsifier, and the concentrate is diluted with water to the desired concentrations.
Citrus plants (Citrus limon) which are infected with a mixed population of the citrus spider mite (Panonychus citri) are sprayed with the active substance preparation at the desired concentration.
(§4) After the desired period of time, the destruction is determined in %. In this context, 100% means that all spider mites have been destroyed; 0% means that no spider mites have been destroyed.

[2] = system: fruit tree spider mite (Panonychus ulmi); assay: Panonychus ulmi test (sprayed plum cuttings); details: single active substance
Experimental: as §1, §2, §3
Plum cuttings (Prunus domestica) which are infected with a mixed population of the fruit tree spider mite (Panonychus ulmi) are sprayed with the active substance preparation at the desired concentration.
as §4

[3] = system: common spider mite (Tetranychus urticae); assay: Tetranychus urticae test (OP-resistant; sprayed cucumbers); details: single active substance
Experimental: Tetranychus urticae Test (OP-Resistant)
as §1, §2, §3
Cucumbers (Cucumis sativus) which are severely infected with the common spider mite (Tetranychus urticae) are sprayed with the active substance preparation at the desired concentration.
as §4

Molecule | LC 50 in mg/l after 1d [1] [mg/L] | Destruction in % after 2d ([2]; 0.8 ppm, plum cuttings) [%] | LC50 [1] [mg/L] | Destruction in % after 6d ([3]; 0.16 ppm, cucumbers) [%] | Destruction in % after 2d ([2]; 4 ppm) [%] | Destruction in % after 6d ([3]; 0.032 ppm) [%] | Destruction in % after 2d ([2]; 0.16 ppm) [%]
CC(C)(C)c1ccc(CSc2cnn(C(C)(C)C)c(=O)c2Cl)cc1 [Pyridaben (IV), pyridaben] | 31.41 (≈ 86.1 µM) | – | – | – | – | – | –
CC(C)(C)c1ccc(CCOc2ncnc3ccccc23)cc1 [Fenazaquin (V), fenazaquin] | – | 0 | 10.2 (≈ 33.3 µM) | 0 | – | – | –
COc1ccc(-c2ccccc2)cc1NNC(=O)OC(C)C [Bifenazate (II), bifenazate] | – | 10 | – | 15 | – | – | –
CCC(C)(C)C(=O)OC1=C(c2ccc(Cl)cc2Cl)C(=O)OC12CCCCC2 [Spirodiclofen (I), Spirodiclofen] | – | 5 | 12.3 (≈ 29.8 µM) | 25 | 15 | 15 | –
abamectin [Abamectin (VI)] | 1.0054 | – | – | – | – | – | 0
